Test results as given in patent publication US20260217677A1, “ORGANIC COMPOUNDS AS NLRP3 INHIBITORS” (KODIAK SCIENCES, INC., priority 2023, published 2026).

System: IL-1β release in U937 cells after NLRP3 activation
Experiment: IL-1β release inhibition in U937 cells (MSD V-Plex)
Details: Homo sapiens, U-937, read-out: IL-1β IC50, Table 3; PMA-differentiated U937 cells, 1 μg/mL LPS 3 h, compound 30 min, 10 mM nigericin 1 h

IC50 [nM]	SMILES
5 to 50	Cc1cc(N[C@@H]2CCCN(C3CCN(C4CC(O)C4)CC3)C2)nnc1-c1ccc(C(F)(F)F)cc1O (single isomer, unassigned) [Example 38A]
5 to 50	Cc1cc(N[C@@H]2CCCN(C3CCN(C4CCC(O)CC4)CC3)C2)nnc1-c1ccc(C(F)(F)F)cc1O (single isomer, unassigned) [Example 39A]
< 5	Cc1cc(N[C@@H]2CCCN(C3CCC(O)CC3)C2)nnc1-c1ccc(C(F)(F)F)cc1O (single isomer, unassigned) [Example 53]
5 to 50	Cc1cc(N[C@@H]2CCCN(C(=O)C3CCCC(O)C3)C2)nnc1-c1ccc(C(F)(F)F)cc1O (single isomer, unassigned) [Example 70 Fraction A]
< 5	Cc1cc(N[C@@H]2CCCN(CCC3CCC(O)CC3)C2)nnc1-c1ccc(C(F)(F)F)cc1O (single isomer, unassigned) [Example 72]
5 to 50	Cc1cc(N[C@@H]2CCCN(CC(=O)N3CCC(O)C3)C2)nnc1-c1ccc(C(F)(F)F)cc1O (stereo partly drawn) [Compound 1, 2-((R)-3-((6-(2-Hydroxy-4-(trifluoromethyl)phenyl)-5-methylpyridazin-3-yl)amino)piperidin-1-yl)-1-(3-hydroxypyrrolidin-1-yl)ethan-1-one]
> 500	Cc1cc(N[C@@H]2CCCN(CCN3CCC(O)C3)C2)nnc1-c1ccc(C(F)(F)F)cc1O (stereo partly drawn) [Compound 2, 1-(2-((R)-3-((6-(2-Hydroxy-4-(trifluoromethyl)phenyl)-5-methylpyridazin-3-yl)amino)piperidin-1-yl)ethyl)pyrrolidin-3-ol]
> 500	Cc1cc(N[C@@H]2CCCN(CCN3CC[C@@H](O)C3)C2)nnc1-c1ccc(C(F)(F)F)cc1O [Compound 3, (R)-1-(2-((R)-3-((6-(2-Hydroxy-4-(trifluoromethyl)phenyl)-5-methylpyridazin-3-yl)amino)piperidin-1-yl)ethyl)pyrrolidin-3-ol]
> 500	Cc1cc(N[C@@H]2CCCN(CCN3CC[C@H](O)C3)C2)nnc1-c1ccc(C(F)(F)F)cc1O [Compound 4, (S)-1-(2-((R)-3-((6-(2-Hydroxy-4-(trifluoromethyl)phenyl)-5-methylpyridazin-3-yl)amino)piperidin-1-yl)ethyl)pyrrolidin-3-ol]
< 5	Cc1cc(N[C@@H]2CCCN(CCN3CC(O)C(F)C3)C2)nnc1-c1ccc(C(F)(F)F)cc1O (stereo partly drawn) [Compound 5, 4-Fluoro-1-(2-((R)-3-((6-(2-hydroxy-4-(trifluoromethyl)phenyl)-5-methylpyridazin-3-yl)amino)piperidin-1-yl)ethyl)pyrrolidin-3-ol]
50 to 500	Cc1cc(C(F)(F)F)cc(O)c1-c1ccc(N[C@@H]2CCCN(CCN3CCC(O)CC3)C2)nn1 [Compound 6, (R)-1-(2-(3-((6-(2-Hydroxy-6-methyl-4-(trifluoromethyl)phenyl)pyridazin-3-yl)amino)piperidin-1-yl)ethyl)piperidin-4-ol]
5 to 50	Cc1cc(N[C@@H]2CCCN(CCN3CCC(O)CC3)C2)nnc1-c1ccc(C(F)(F)F)cc1O [Compound 7, (R)-1-(2-(3-((6-(2-Hydroxy-4-(trifluoromethyl)phenyl)-5-methylpyridazin-3-yl)amino)piperidin-1-yl)ethyl)piperidin-4-ol]
5 to 50	Cc1cc(N[C@@H]2CCCN(CC(=O)N3CC(O)C3)C2)nnc1-c1ccc(C(F)(F)F)cc1O [Compound 8, (R)-2-(3-((6-(2-Hydroxy-4-(trifluoromethyl)phenyl)-5-methylpyridazin-3-yl)amino)piperidin-1-yl)-1-(3-hydroxyazetidin-1-yl)ethan-1-one]
5 to 50	Cc1cc(N[C@@H]2CCCN(CC(=O)N3CCC(O)CC3)C2)nnc1-c1ccc(C(F)(F)F)cc1O [Compound 9, 2-[(3R)-3-({6-[2-Hydroxy-4-(trifluoromethyl)phenyl]-5-methylpyridazin-3-yl}amino)piperidin-1-yl]-1-(4-hydroxypiperidin-1-yl)ethanone]
5 to 50	Cc1cc(N[C@@H]2CCCN(CC(=O)NC3CC(O)C3)C2)nnc1-c1ccc(C(F)(F)F)cc1O (stereo partly drawn) [Compound 10, 2-((R)-3-((6-(2-Hydroxy-4-(trifluoromethyl)phenyl)-5-methylpyridazin-3-yl)amino)piperidin-1-yl)-N-((1r,3R)-3-hydroxycyclobutyl)acetamide]
< 5	Cc1cc(N[C@@H]2CCCN(CC(=O)N3CC[C@H](O)C3)C2)nnc1-c1ccc(C(F)(F)F)cc1O [Compound 11, 2-((R)-3-((6-(2-Hydroxy-4-(trifluoromethyl)phenyl)-5-methylpyridazin-3-yl)amino)piperidin-1-yl)-1-((S)-3-hydroxypyrrolidin-1-yl)ethan-1-one]
< 5	Cc1cc(N[C@@H]2CCCN(CC(=O)N3CC[C@@H](O)C3)C2)nnc1-c1ccc(C(F)(F)F)cc1O [Compound 12, 2-((R)-3-((6-(2-Hydroxy-4-(trifluoromethyl)phenyl)-5-methylpyridazin-3-yl)amino)piperidin-1-yl)-1-((R)-3-hydroxypyrrolidin-1-yl)ethan-1-one]
5 to 50	Cc1cc(N[C@@H]2CCCN(CC(=O)NC34CC(O)(C3)C4)C2)nnc1-c1ccc(C(F)(F)F)cc1O [Compound 13, (R)-2-(3-((6-(2-Hydroxy-4-(trifluoromethyl)phenyl)-5-methylpyridazin-3-yl)amino)piperidin-1-yl)-N-(3-hydroxybicyclo[1.1.1]pentan-1-yl)acetamide]
5 to 50	Cc1cc(N[C@@H]2CCCN(CC(=O)N[C@H]3C[C@@H](O)C3)C2)nnc1-c1ccc(C(F)(F)F)cc1O [Compound 14, 2-((R)-3-((6-(2-Hydroxy-4-(trifluoromethyl)phenyl)-5-methylpyridazin-3-yl)amino)piperidin-1-yl)-N-((1s,3S)-3-hydroxycyclobutyl)acetamide]
< 5	Cc1cc(N[C@@H]2CCCN(CC(=O)N3CCC4(CC3)CC(O)C4)C2)nnc1-c1ccc(C(F)(F)F)cc1O [Compound 15, 2-[(3R)-3-({6-[2-Hydroxy-4-(trifluoromethyl)phenyl]-5-methylpyridazin-3-yl}amino)piperidin-1-yl]-1-{2-hydroxy-7-azaspiro[3.5]nonan-7-yl}ethanone]
5 to 50	Cc1cc(N[C@@H]2CCCN(CC(=O)N3CC4(CC(O)C4)C3)C2)nnc1-c1ccc(C(F)(F)F)cc1O [Compound 16, (R)-2-(3-((6-(2-Hydroxy-4-(trifluoromethyl)phenyl)-5-methylpyridazin-3-yl)amino)piperidin-1-yl)-1-(6-hydroxy-2-azaspiro[3.3]heptan-2-yl)ethan-1-one]
< 5	Cc1cc(N[C@@H]2CCCN(CC(=O)N3CC4(CCC(O)CC4)C3)C2)nnc1-c1ccc(C(F)(F)F)cc1O [Compound 17, (R)-2-(3-((6-(2-Hydroxy-4-(trifluoromethyl)phenyl)-5-methylpyridazin-3-yl)amino)piperidin-1-yl)-1-(7-hydroxy-2-azaspiro[3.5]nonan-2-yl)ethan-1-one]
50 to 500	Oc1cc(C(F)(F)F)ccc1-c1nnc(N[C@@H]2CCCN(CCN3CCC(O)CC3)C2)c2c1CCC2 [Compound 19, 1-{2-[(3R)-3-({4-[2-Hydroxy-4-(trifluoromethyl)phenyl]-5H,6H,7H-cyclopenta[d]pyridazin-1-yl}amino)piperidin-1-yl]ethyl}piperidin-4-ol]
50 to 500	O=C(CN1CCC[C@@H](Nc2nnc(-c3ccc(F)cc3O)c3c2CCC3)C1)N1CCC(O)CC1 [Compound 20, 2-[(3R)-3-{[4-(4-Fluoro-2-hydroxyphenyl)-5H,6H,7H-cyclopenta[d]pyridazin-1-yl]amino}piperidin-1-yl]-1-(4-hydroxypiperidin-1-yl) ethenone]
5 to 50	O=C(CN1CCC[C@@H](Nc2nnc(-c3ccc(C(F)(F)F)cc3O)c3c2COC3)C1)N1CC(O)C1 [Compound 22, (R)-2-(3-((4-(2-Hydroxy-4-(trifluoromethyl)phenyl)-5,7-dihydrofuro[3,4-d]pyridazin-1-yl)amino)piperidin-1-yl)-1-(3-hydroxyazetidin-1-yl)ethan-1-one]

Same assay, conditions: Homo sapiens, U-937, read-out: IL-1β IC50, Table 4; PMA-differentiated U937 cells, 1 μg/mL LPS 3 h, compound 30 min, 10 mM nigericin 1 h

IC50 [nM]	SMILES
5 to 50	Cc1cc(N[C@@H]2CCCN([C@H]3C[C@H](N)C3)C2)nnc1-c1ccc(C(F)(F)F)cc1O (relative stereo) [Example 90, 2-(6-(((R)-1-((1r*,3R*)-3-Aminocyclobutyl)piperidin-3-yl)amino)-4-methylpyridazin-3-yl)-5-(trifluoromethyl)phenol]
5 to 50	Cc1cc(N[C@@H]2CCCN(C3CC(N)C3)C2)nnc1-c1ccc(C(F)(F)F)cc1O (stereo in doubt) [Example 91, 2-(6-(((R)-1-((1s*,3S*)-3-aminocyclobutyl)piperidin-3-yl)amino)-4-methylpyridazin-3-yl)-5-(trifluoromethyl)phenol]

Same assay, conditions: read-out: IL-1β IC50; Table 3; PMA-differentiated U937 cells, 1 μg/mL LPS 3 h, compound 30 min, 10 mM nigericin 1 h

IC50 [nM]	SMILES
5 to 50	Cc1cc(N[C@@H]2CCCN(C3CCN(C4CC(O)C4)CC3)C2)nnc1-c1ccc(C(F)(F)F)cc1O (single isomer, unassigned) [Example 38B]
5 to 50	Cc1cc(N[C@@H]2CCCN(C3CCN(C4CCC(O)CC4)CC3)C2)nnc1-c1ccc(C(F)(F)F)cc1O (single isomer, unassigned) [Example 39B]
< 5	Cc1cc(N[C@@H]2CCCN(C3CCC(O)CC3)C2)nnc1-c1ccc(C(F)(F)F)cc1O (single isomer, unassigned) [Example 54]
< 5	Cc1cc(N[C@@H]2CCCN(C(=O)C3CCCC(O)C3)C2)nnc1-c1ccc(C(F)(F)F)cc1O (single isomer, unassigned) [Example 70 Fraction B]
5 to 50	Cc1cc(N[C@@H]2CCCN(CC(=O)N(C)[C@H]3CC[C@H](O)CC3)C2)nnc1-c1ccc(C(F)(F)F)cc1O [Compound 18, 2-((R)-3-((6-(2-Hydroxy-4-(trifluoromethyl)phenyl)-5-methylpyridazin-3-yl)amino)piperidin-1-yl)-N-((1r,4R)-4-hydroxycyclohexyl)-N-methylacetamide]
